Source: patent publication US20240360148A1 (SUVALENT THERAPEUTICS, INC., priority 2021, published 2024)
Read-outs that look alike come from different tables or passages of the source.

Tests used:
[1] = test system: sumoylation levels (SUMO 2/3 conjugates) in HCT-116 cells; assay: HCT-116 4 Hour Cell Assay (Western, SUMO 2/3 conjugates); assay type: cell-based; details: 4 h treatment, Anti-Sumo 2-3 immunoblot, read-out: HCT-116 Western 4 h IC50 (μM) Ave
Experimental: This protocol describes the procedures used to assess the effects of compounds of interest on sumoylation levels. Immunoblot of SUMO 2/3 conjugates are performed and IC50 curves are generated upon quantification of sumoylations bands. HCT-116 cells are seeded in a 12 well plate (500,000 cells/well). The following day the cells are treated with compounds of interest (resuspended in DMSO) for 4 hours (11 concentrations with a three-fold dilution; starting concentration 25 μM) Following 4 hours of incubation the cells are washed with ice cold PBS 1×and protein extraction is performed with RIPA buffer supplemented with phosphatases and proteases inhibitors, 25 mM of NEM and 50 units/mL of Benzonase. Samples undergo centrifugation at 13,000 RPM, 4° C., for 10 minutes and the supernatant is collected. Protein quantification is performed using BCA. Non-Reducing Laemmli Buffer is added to the samples. Samples are heated at 75° C. for 10 minutes, and are centrifuged for 3 minutes at 9000 RPM Nupage 4-12% Bis Tris gels and 1× MOPS buffer (Fisher Scientific)+1× NuPAGE Antioxidant (Invitrogen) are used to perform the SDS-PAGE gel electrophoresis (20 to 40 μg of proteins are loaded in the gels). Proteins are then transferred to PVDF membranes and the level of total proteins are measured by staining with Revert Total Protein Stain and the fluorescent bands are acquired using the LI-COR FC (700 nm for 1 min) Membranes are blocked for 5 minutes with Bio-Rad Blocking Buffer and are subsequently incubated over night at 4° C. with Anti-Sumo 2-3 mAb (M BL #M114-3, 1:1000 in Bio-Rad Blocking Buffer, 0.2% Tween 20) Membranes are washed with 1×TBS-T (3 times for 5 minutes) and sumoylation is detected using Li-cor IRDye 800CW Goat anti-Mouse IgG secondary antibody (1:10,000 dilution) upon 1 hour of incubation in blocking buffer with 0.2% Tween 20 and 0.01% SDS. After the incubation, the membranes are washed with 1×TBS-T (3 times for 5 minutes). To visualize the fluorescent bands the membranes are scanned with LI-COR FC (700 nm for 1 min and […] for 2 mins). Sumoylation levels are quantified upon normalization with total protein levels, using the LI-COR Image Studio Lite 5.2 Software.

SAE1 = SAE1 (Homo sapiens (Human), UniProt Q9UBE0+Q9UBT2); assay: SAE High Throughput Biochemical Assay (HTRF), 15 min preincubation; details: read-out: 15 min preincubation HTRF IC50 (μM) Ave, SAE1 12.5 nM, ATP 100 μM
Procedure, shortened: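 HTRF detection of SUMO transfer from SUMO-GST to UBC9-His (40 nM each) by SAE1 at 12.5 nM used 100 μM ATP in pH 7.5 HEPES buffer with 10 mM MgCl2 and 0.1% BSA. Enzyme and compound were preincubated 15 min at RT and the reaction ran 45 min, with readings after 2 h and overnight.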

Chain of SAE1 (Q9UBE0 whole entry): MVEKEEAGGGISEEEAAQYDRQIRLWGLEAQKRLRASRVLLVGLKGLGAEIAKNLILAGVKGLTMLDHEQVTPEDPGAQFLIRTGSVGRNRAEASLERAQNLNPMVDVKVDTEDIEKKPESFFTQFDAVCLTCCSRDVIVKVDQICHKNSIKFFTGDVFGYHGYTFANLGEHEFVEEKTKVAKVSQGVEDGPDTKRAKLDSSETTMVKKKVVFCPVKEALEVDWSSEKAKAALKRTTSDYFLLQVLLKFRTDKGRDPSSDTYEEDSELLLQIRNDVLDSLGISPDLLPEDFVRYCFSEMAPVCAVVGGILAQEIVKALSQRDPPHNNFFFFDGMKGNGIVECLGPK
Chain of SAE1 (Q9UBT2 whole entry): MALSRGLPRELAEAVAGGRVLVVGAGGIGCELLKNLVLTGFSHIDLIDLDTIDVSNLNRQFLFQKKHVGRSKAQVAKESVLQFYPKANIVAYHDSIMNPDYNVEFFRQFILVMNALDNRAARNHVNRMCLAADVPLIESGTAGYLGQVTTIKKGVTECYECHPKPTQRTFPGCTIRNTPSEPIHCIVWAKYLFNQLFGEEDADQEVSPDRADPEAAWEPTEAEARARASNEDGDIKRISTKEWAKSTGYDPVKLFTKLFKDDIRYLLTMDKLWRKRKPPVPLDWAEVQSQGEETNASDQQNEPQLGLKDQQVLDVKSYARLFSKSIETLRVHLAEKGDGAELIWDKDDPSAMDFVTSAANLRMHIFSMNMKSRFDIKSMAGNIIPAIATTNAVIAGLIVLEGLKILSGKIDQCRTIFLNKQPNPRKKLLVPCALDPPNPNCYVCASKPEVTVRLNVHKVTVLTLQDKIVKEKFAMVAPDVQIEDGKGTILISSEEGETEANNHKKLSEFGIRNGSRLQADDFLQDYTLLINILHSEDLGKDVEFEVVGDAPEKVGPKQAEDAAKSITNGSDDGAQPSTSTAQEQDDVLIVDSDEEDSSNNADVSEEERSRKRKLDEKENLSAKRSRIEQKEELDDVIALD

Row | SMILES | IC50 ([1]; Homo sapiens, HCT-116, 4 h) [µM] | IC50 (SAE1) [µM] | IC50 [1] [µM]
1 | CCn1cc(-c2ccccc2[C@@H]2CN(C(=O)/C=C/[C@@H]3CC(C)(C)CN3)Cc3sc(C#N)cc32)c(C(F)(F)F)n1 [Example 83, (S)-6-((E)-3-((S)-4,4-Dimethylpyrrolidin-2-yl)acryloyl)-4-(2-(1-ethyl-3-(trifluoromethyl)-1H pyrazol-4-yl)phenyl)-4,5,6,7-tetrahydrothieno[2,3-c]pyridine-2-carbonitrile] | 0.309 | 0.76 | –
2 | CCn1cc(-c2ccccc2[C@@H]2CN(C(=O)/C=C/[C@H](C)NC)Cc3sc(C#N)cc32)c(C(F)(F)F)n1 [Example 84, (S)-4-(2-(1-Ethyl-3-(trifluoromethyl)-1 H pyrazol-4-yl)phenyl)-6-((S, E)-4-(methylamino)pent-2-enoyl)-4,5,6,7-tetrahydrothieno[2,3-c]pyridine-2-carbonitrile] | 0.503 | 2.79 | –
3 | CCn1cc(-c2c(F)cccc2[C@@H]2CN(C(=O)/C=C/[C@@H]3C[C@H]4C[C@H]4N3)Cc3sc(C#N)cc32)c(C(F)(F)F)n1 [Example 92, (S)-6-((E)-3-((IR,3S,5R)-2-azabicyclo[3.1.0]hexan-3-yl)acryloyl)-4-(2-(1-ethyl-3-(trifluoromethyl)-1H pyrazol-4-yl)-3-fluorophenyl)-4,5,6,7-tetrahydrothieno[2,3-c]pyridine-2-carbonitrile] | – | 0.4 | 0.451
4 | CCn1cc(-c2ccccc2[C@@H]2CN(C(=O)/C=C/CNC3(C)CCOCC3)Cc3sc(C#N)cc32)c(C(F)(F)F)n1 [Example 96, (S,E)-4-(2-(1-Ethyl-3-(trifluoromethyl)-1H-pyrazol-4-yl)phenyl)-6-(4-((4-methyltetrahydro-2H pyran-4-yl)amino)but-2-enoyl)-4,5,6,7-tetrahydrothieno[2,3-c]pyridine-2-carbonitrile] | 2.79 | 2.92 | –
5 | CCNC/C=C/C(=O)N1Cc2sc(C#N)cc2[C@H](c2ccccc2-c2cn(CC)nc2C(F)(F)F)C1 [Example 99, (S, E)-4-(2-(1-Ethyl-3-(trifluoromethyl)-1 H-pyrazol-4-yl)phenyl)-6-(4-(ethylamino)but-2-enoyl)-4,5,6,7-tetrahydrothieno[2,3-c]pyridine-2-carbonitrile] | 0.563 | 2.83 | –
6 | CCNC/C=C/C(=O)N1Cc2sc(C#N)cc2[C@H](c2cccc(F)c2-c2cn(CC)nc2C(F)(F)F)C1 [Example 100, (S, E)-4-(2-(1-Ethyl-3-(trifluoromethyl)-1 H-pyrazol-4-yl)-3-fluorophenyl)-6-(4-(ethylamino)but-2-enoyl)-4,5,6,7-tetrahydrothieno[2,3-c]pyridine-2-carbonitrile] | 0.174 | 1.38 | –

Now from value to compound, other results behind:

Row | IC50 ([1]; Homo sapiens, HCT-116, 4 h) [µM] | SMILES | IC50 (SAE1) [µM] | IC50 [1] [µM]
7 | 0.732 | CCn1cc(-c2ccccc2[C@@H]2CN(C(=O)/C=C/CNC(C)(C)C)Cc3sc(C#N)cc32)c(C(F)(F)F)n1 [Example 101, (S, E)-6-(4-(tert-Butylamino)but-2-enoyl)-4-(2-(1-ethyl-3-(trifluoromethyl)-1 H-pyrazol-4-yl)phenyl)-4,5,6,7-tetrahydrothieno[2,3-c]pyridine-2-carbonitrile] | 2.24 | –
8 | 0.675 | CCn1cc(-c2ccccc2[C@@H]2CN(C(=O)/C=C/CNC3CC3)Cc3sc(C#N)cc32)c(C(F)(F)F)n1 [Example 102, (S, E)-6-(4-(Cyclopropylamino)but-2-enoyl)-4-(2-(1-ethyl-3-(trifluoromethyl)-1 H-pyrazol-4-yl)phenyl)-4,5,6,7-tetrahydrothieno[2,3-c]pyridine-2-carbonitrile] | 1.74 | –
9 | 1.66 | CCCCNC/C=C/C(=O)N1Cc2sc(C#N)cc2[C@H](c2ccccc2-c2cn(CC)nc2C(F)(F)F)C1 [Example 103, (S, E)-6-(4-(Butylamino)but-2-enoyl)-4-(2-(1-ethyl-3-(trifluoromethyl)-1 H-pyrazol-4-yl)phenyl)-4,5,6,7-tetrahydrothieno[2,3-c]pyridine-2-carbonitrile] | 2.66 | –
10 | 1.78 | CCn1cc(-c2ccccc2[C@@H]2CN(C(=O)/C=C/CNCC(C)C)Cc3sc(C#N)cc32)c(C(F)(F)F)n1 [Example 104] | 2.14 | –
